In the supplement of paper PMC11061612:

Experiments:
Test in all cases: Bliss excess, mean over the matrix (fraction); higher = more synergy
[1] = tested on: BL-41 (Burkitt's Lymphoma)
Procedure, shortened: (§1)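 Cell lines in DMEM/F12 or RPMI with 10% FBS were plated in 1536-well plates, held 24 hours at 37°C, 5% CO2, then given two-drug dose matrices for 72 hours (DMSO typically 0.2%). Viability was read by CellTiter-Glo 2.0 luminescence and scaled as inhibition from 0 (vehicle wells) to 1 (blank wells). Combination Emax is the second-highest inhibition in the matrix; Bliss excess is observed combination effect minus expected EA + EB − EA·EB, EA and EB being single-agent effects.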

[2] = tested on: CAMA-1 (Breast Carcinoma)
Procedure, shortened: as §1

CHP-212 (Neuroblastoma) = tested on: CHP-212 (Neuroblastoma)
Procedure, shortened: as §1

[3] = tested on: COLO-678 (Colorectal Carcinoma)
Procedure, shortened: as §1

[4] = tested on: DND-41 (T-Lymphoblastic Leukemia)
Procedure, shortened: as §1

[5] = tested on: DiFi (Colorectal Carcinoma)
Procedure, shortened: as §1

[6] = tested on: KM12 (Colorectal Carcinoma)
Procedure, shortened: as §1

[7] = tested on: KYSE-180 (Esophageal Squamous Cell Carcinoma)
Procedure, shortened: as §1

LN-18 (Glioblastoma) = tested on: LN-18 (Glioblastoma)
Procedure, shortened: as §1

MEL-JUSO (Melanoma) = tested on: MEL-JUSO (Melanoma)
Procedure, shortened: as §1

[8] = tested on: MFM-223 (Breast Carcinoma)
Procedure, shortened: as §1

[9] = tested on: MKN28 (Gastric Carcinoma)
Procedure, shortened: as §1

[10] = tested on: NCI-H1792 (Lung Adenocarcinoma)
Procedure, shortened: as §1

[11] = tested on: NCI-H847 (Small Cell Lung Carcinoma)
Procedure, shortened: as §1

[12] = tested on: PANC-08-13 (Pancreatic Carcinoma)
Procedure, shortened: as §1

[13] = tested on: SW1417 (Colorectal Carcinoma)
Procedure, shortened: as §1

TC-71 (Ewing's Sarcoma) = tested on: TC-71 (Ewing's Sarcoma)
Procedure, shortened: as §1

[14] = tested on: TE-6 (Esophageal Squamous Cell Carcinoma)
Procedure, shortened: as §1

[15] = tested on: TOV-112D (Ovarian Carcinoma)
Procedure, shortened: as §1

WIL2-NS (Non-Cancerous) = tested on: WIL2-NS (Non-Cancerous)
Procedure, shortened: as §1

Row | SMILES | Bliss excess [1] | Bliss excess [2] | Bliss excess (CHP-212 (Neuroblastoma)) | Bliss excess [3] | Bliss excess [4] | Bliss excess [5] | Bliss excess [6] | Bliss excess [7] | Bliss excess (LN-18 (Glioblastoma)) | Bliss excess (MEL-JUSO (Melanoma)) | Bliss excess [8] | Bliss excess [9] | Bliss excess [10] | Bliss excess [11] | Bliss excess [12] | Bliss excess [13] | Bliss excess (TC-71 (Ewing's Sarcoma)) | Bliss excess [14] | Bliss excess [15] | Bliss excess (WIL2-NS (Non-Cancerous))
1 | CCN(CCO)CCCOc1ccc2c(Nc3cc(CC(=O)Nc4cccc(F)c4)[nH]n3)ncnc2c1 [AZD2811] + C=CCn1c(=O)c2cnc(Nc3ccc(N4CCN(C)CC4)cc3)nc2n1-c1cccc(C(C)(C)O)n1 [AZD1775] (first compound max 1 µM, partner max 1 µM) | 0.0862 | -0.0328 | -0.0625 | -0.0002 | 0.0198 | 0.0322 | -0.0092 | 0.0089 | 0.0214 | 0.0131 | 0.0277 | -0.0954 | -0.0328 | -0.0091 | -0.0319 | -0.0654 | 0.0744 | -0.0367 | 0.105 | 0.0117
2 | CCN(CCO)CCCOc1ccc2c(Nc3cc(CC(=O)Nc4cccc(F)c4)[nH]n3)ncnc2c1 [AZD2811] + O=C(c1cc(Cc2n[nH]c(=O)c3ccccc23)ccc1F)N1CCN(C(=O)C2CC2)CC1 [Olaparib] (first compound max 1 µM, 7x7, partner max 10 µM) | -0.121 | -0.0308 | -0.0249 | -0.0223 | -0.0059 | -0.0153 | 0.0068 | 0.0207 | -0.0299 | -0.0015 | 0.0058 | -0.0319 | -0.0029 | -0.0464 | -0.0087 | -0.0456 | -0.0772 | -0.0006 | 0.0355 | -0.033
3 | CC1(C)CCC(CN2CCN(c3ccc(C(=O)NS(=O)(=O)c4ccc(NCC5CCOCC5)c([N+](=O)[O-])c4)c(Oc4cnc5[nH]ccc5c4)c3)CC2)=C(c2ccc(Cl)cc2)C1 [Venetoclax] + CN(C)CCCOc1ccc(-c2ccc3ncc4c(c3c2)n(C2CCOCC2)c(=O)n4C)cn1 [AZD0156] (first compound max 1 µM, 7x7, partner max 1 µM) | 0.0008 | -0.0161 | -0.034 | -0.0549 | 0.0278 | 0.0216 | -0.0126 | -0.0128 | -0.0488 | -0.0128 | -0.0313 | 0.0042 | 0.0133 | 0.037 | 0.0037 | -0.0332 | -0.0022 | 0.0055 | -0.0341 | -0.0296
4 | COc1cccc(OCCCN)c1-c1cc(Nc2cnc(C#N)cn2)n[nH]1 [Prexasertib] + C=CCn1c(=O)c2cnc(Nc3ccc(N4CCN(C)CC4)cc3)nc2n1-c1cccc(C(C)(C)O)n1 [AZD1775] (first compound max 1 µM, partner max 1 µM) | 0.0467 | 0.11 | -0.0368 | -0.0079 | -0.0247 | 0.0236 | 0.0787 | 0.132 | 0.042 | 0.0303 | 0.0825 | 0.0901 | 0.0638 | 0.0809 | -0.0174 | 0.0443 | 0.0949 | 0.0995 | 0.137 | 0.0513
5 | CC1(C)CCC(CN2CCN(c3ccc(C(=O)NS(=O)(=O)c4ccc(NCC5CCOCC5)c([N+](=O)[O-])c4)c(Oc4cnc5[nH]ccc5c4)c3)CC2)=C(c2ccc(Cl)cc2)C1 [Venetoclax] + CCN(CCO)CCCOc1ccc2c(Nc3cc(CC(=O)Nc4cccc(F)c4)[nH]n3)ncnc2c1 [AZD2811] (first compound max 1 µM, 7x7, partner max 1 µM) | -0.137 | -0.0198 | -0.0499 | -0.0312 | 0.0178 | -0.098 | 0.0148 | 0.0453 | -0.0146 | -0.0165 | 0.0084 | -0.0257 | 0.0122 | 0.112 | -0.0269 | -0.0567 | 0.0227 | -0.0112 | -0.0053 | 0.0275
6 | Cc1c2c(nn1C)CSCc1cc(n(C)n1)CSc1cc(c3ccccc3c1)OCCCc1c(C(=O)O)n(C)c3c-2c(Cl)ccc13 [AZD5991] + Cc1cc2ncnn2cc1Nc1ncc2c(n1)n(C1CCOCC1)c(=O)n2C [AZD7648] (first compound max 1 µM, 7x7, partner max 10 µM) | 0.029 | -0.0456 | 0.0203 | -0.0416 | -0.0023 | -0.0448 | -0.0073 | -0.0126 | -0.025 | -0.0453 | -0.0361 | 0.0046 | -0.0248 | 0.0083 | 0.0012 | 0.0054 | -0.0745 | -0.0874 | -0.0214 | 0.0039
7 | CC1(C)CCC(CN2CCN(c3ccc(C(=O)NS(=O)(=O)c4ccc(NCC5CCOCC5)c([N+](=O)[O-])c4)c(Oc4cnc5[nH]ccc5c4)c3)CC2)=C(c2ccc(Cl)cc2)C1 [Venetoclax] + C=CCn1c(=O)c2cnc(Nc3ccc(N4CCN(C)CC4)cc3)nc2n1-c1cccc(C(C)(C)O)n1 [AZD1775] (first compound max 1 µM, partner max 1 µM) | -0.0319 | 0.0033 | -0.0497 | -0.0371 | 0.103 | -0.0222 | -0.0538 | 0.0264 | 0.0062 | -0.0447 | -0.0987 | -0.0029 | 0.0479 | -0.0022 | -0.0153 | -0.0132 | -0.0215 | -0.0859 | -0.0375 | 0.054
8 | COc1cccc(OCCCN)c1-c1cc(Nc2cnc(C#N)cn2)n[nH]1 [Prexasertib] + C[C@@H]1COCCN1C2=NC(=NC(=C2)C3(CC3)[S@](=N)(=O)C)C4=C5C=CNC5=NC=C4 [AZD6738] (first compound max 1 µM, 7x7, partner max 10 µM) | -0.0066 | -0.0484 | -0.0776 | -0.0346 | -0.0651 | -0.0794 | -0.0494 | -0.0702 | 0.0188 | -0.0307 | -0.106 | 0.0579 | -0.0129 | -0.035 | -0.0421 | 0.0572 | -0.0164 | 0.0669 | 0.0177 | -0.0021
9 | COc1cccc(OCCCN)c1-c1cc(Nc2cnc(C#N)cn2)n[nH]1 [Prexasertib] + CN(C)CCCOc1ccc(-c2ccc3ncc4c(c3c2)n(C2CCOCC2)c(=O)n4C)cn1 [AZD0156] (first compound max 1 µM, 7x7, partner max 1 µM) | -0.0134 | 0.0046 | -0.0377 | -0.036 | -0.101 | -0.0503 | -0.0095 | 0.0022 | 0.0304 | 0.0301 | -0.0028 | -0.0286 | -0.0104 | -0.0124 | -0.027 | -0.0473 | 0.026 | -0.0081 | 0.0332 | -0.0281
10 | CN(CCO)CC[C@H](CSc1ccccc1)Nc1ccc(S(=O)(=O)NC(=O)c2ccc(N3CCC([C@@H](O)c4ccccc4-c4ccc(Cl)cc4)CC3)cc2)cc1S(=O)(=O)C(F)(F)F [AZD4320] + C[C@@H]1COCCN1C2=NC(=NC(=C2)C3(CC3)[S@](=N)(=O)C)C4=C5C=CNC5=NC=C4 [AZD6738] (first compound max 1 µM, 7x7, partner max 10 µM) | -0.0221 | -0.0016 | -0.0496 | -0.0616 | -0.0028 | -0.0044 | -0.0272 | -0.0042 | -0.0705 | -0.0159 | -0.0367 | -0.0528 | -0.0647 | -0.0091 | -0.019 | -0.0757 | 0.075 | -0.0927 | 0.0134 | -0.0004
11 | CN(CCO)CC[C@H](CSc1ccccc1)Nc1ccc(S(=O)(=O)NC(=O)c2ccc(N3CCC([C@@H](O)c4ccccc4-c4ccc(Cl)cc4)CC3)cc2)cc1S(=O)(=O)C(F)(F)F [AZD4320] + CN(C)CCCOc1ccc(-c2ccc3ncc4c(c3c2)n(C2CCOCC2)c(=O)n4C)cn1 [AZD0156] (first compound max 1 µM, 7x7, partner max 1 µM) | 0.0153 | -0.0591 | -0.056 | -0.081 | -0.0036 | 0.0046 | -0.0489 | -0.0037 | -0.0015 | 0.0034 | -0.0347 | -0.0429 | -0.0144 | 0.0109 | -0.0051 | -0.0567 | -0.0112 | 0.0418 | -0.0078 | 0.0109
12 | C[C@@H]1COCCN1c1cc(C2([S@](C)(=N)=O)CC2)nc(-c2ccnc3[nH]ccc23)n1 [AZD6738] + O=C(c1cc(Cc2n[nH]c(=O)c3ccccc23)ccc1F)N1CCN(C(=O)C2CC2)CC1 [Olaparib] (first compound max 10 µM, 7x7, partner max 10 µM) | -0.0556 | -0.0327 | -0.0095 | -0.0046 | -0.0128 | 0.0033 | 0.0138 | 0.0762 | 0.0598 | 0.0118 | 0.0074 | -0.001 | 0.0178 | -0.014 | 0.0021 | 0.0033 | -0.0726 | -0.0172 | 0.0206 | -0.0083
